Data: patent publication US20160235677A1, “METHOD OF CONVERTING A CRYSTALLINE COMPOUND TO AN AMORPHOUS COMPOUND, METHOD OF INCREASING THE SOLUBILITY OF A CRYSTALLINE COMPOUND IN A BIORELEVANT FLUID, AND NANOPARTICLES THAT ACHIEVE SUPERSATURATION” (Nanocopoeia, LLC., priority 2014, published 2016)
In brackets after ≈: the same amount, converted by molar mass. Like-named read-outs stand apart in the source and are kept apart here.

Columns and labels:
[1] = Caco-2 Monolayer Test Method; format: in vitro ADME; conditions: human; Caco-2 monolayers, apical to basolateral, powder equivalent to 200 μg GF in 1 mL buffer pH 7.4, 2 h
Protocol: Caco-2 monolayers are prepared in Millipore 96-cell Caco-2 plates and are used after a 3-week differentiation period. The monolayers separate the apical, or donor well, from the basolateral, or recipient well. The buffer used for the apical side is 1.98 g/L glucose in 10 mM HEPES, Hank's Balanced Salt Solution (HBSS) lx, with calcium, magnesium, without phenol red (HyClone, Logan, Utah) pH 7.4. The impermeable dye Lucifer yellow (in an amount of 100 μM) is added to test monolayer integrity. The basolateral side buffer is buffer, pH 7.4, without dye. […] The amount of test powder is selected to assure that if the powder was completely dissolved, the amount is sufficient to achieve ˜12 to 13 times the saturation concentration of the compound of interest previously measured in HBSS (15 μg/mL), in other words, a supersaturated solution. […] Where the compound of interest is not a substrate for p-glycoprotein (pGP), B→A efflux is not measured.
Buffer test samples are added to apical wells at 1 h after preparation and buffer alone is added to the basolateral side. […] The plates are assumed to be intact if there is no increase in fluorescence from leaking Lucifer yellow dye from the apical side. Individual cell monolayers are assumed intact if there is no increase in fluorescence in aliquots taken from the basolateral wells. […]

[2] = X-Ray Powder Diffraction (XRD) crystallinity / physical state; format: physicochemical; conditions: griseofulvin materials, result in words
Protocol: X-ray powder diffraction is performed at room temperature using a Bruker D8 Discover using a Cu Kα radiation, point source filtered with a graphite monochromator and a Bruker Hi-Star two-dimensional x-ray detector (Bruker, Karlsruhe, Germany). Powder samples are pressed onto a sample holder made of single-crystal quartz cut off-axis. The reflected intensity is collected at 0.04° resolution from 2Θ=2° to 62° with an acquisition time of 20 minutes. Data analysis is performed using the JADE 8.0 software package (Materials Data Inc., Livermore, Calif.) with whole pattern fitting. The test method has a detection limit of 2% crystallinity. […]

[3] = Equilibrium / saturation solubility in test media; format: physicochemical; conditions: GF, previously measured
[4] = Dissolution in Biorelevant Medium Using Non-Sink Condition (griseofulvin powders in FaSSIF); format: physicochemical; conditions: GF dissolution in FaSSIF, 5 hour experiment
Protocol: A modified low-volume shaker flask method is used to assess the dissolution behavior of samples under supersaturated conditions. A 75 mL aliquot of FaSSIF, adjusted to pH 6.5, is added to each of six 150 mL Erlenmeyer flasks, which are then stoppered. The liquid is then heated to and maintained at 37° C.±1° C. using a benchtop incubated orbital shaker with a multi position stir plate (Forma Scientific 4520, Thermo Fisher Scientific, Waltham, Mass.). A 38 mm×9 mm stir bar is placed in each flask and stirring is started at 150 rotations per minute (RPM). A control sample, containing the compound of interest, and experimental samples are added to separate flasks in amounts sufficient to provide an amount of the compound of interest equivalent to the control sample. At each of 5 min, 15 min, 20 min, 30 min, 45 min, 60 min, 120 min, 240 min, and 300 min, 3 mL of dissolution media is removed from each flask, and immediately filtered through a 13 mm, 0.2 μm nylon filter with glass prefilter (EMD Millipore, Billerica, Mass.) after first discarding the first 2 mL of the sample. […]
The HPLC analysis is performed using an Ace C18, 2.1×150 mm, 3 μm chromatographic column maintained at 30° C. […] Quantification is performed based on linear calibration curve ranging from 10 ng/mL to 1000 ng/mL using peak response ratio.
For the Dissolution in Biorelevant Medium Using Non-Sink Condition analysis, a 24 mg sample of Control 1, i.e., griseofulvin powder, and an amount of Examples 1-7 sufficient to provide an amount of griseofulvin equivalent to the amount of Control 1, i.e., 24 mg, was added to each flask. Quantification was performed based on linear calibration curve ranging from 10 to 1000 ng/mL using peak response ratio. […]
Dry powder produced as describe above in Examples 8-11 was evaluated in the biorelevant medium FaSSIF, comparing ENS-processed powders with physical mixtures at similar ratios of GF:SP. […]

[5] = non-sink, 24 mg GF equivalent in 75 mL, 37° C.

In the case of `COC1=CC(=O)C[C@@H](C)[C@]12Oc1c(Cl)c(OC)cc(OC)c1C2=O` [Control 1, (+)-griseofulvin], the Papp A→B at 2 h, 200 μg/mL [1] is reported as 28 ± 2.5 ×10⁻⁶ cm/s, the “physical state by XRD” value [2] is reported as “completely crystalline material” and the solubility thermodynamic ([3]; HBSS, saline or isotonic, read-out: saturation concentration in HBSS) is reported as 15 µg/mL (≈ 42.5 µM). The solubility thermodynamic ([3]; water, thermodynamic from solid, read-out: equilibrium solubility in water) was 6 to 10 µg/mL (≈ 17 to 28.3 µM), the “Cmax” value [4, 5] was 18300 ng/mL and the “Tmax” value [4, 5] was 30 min. The AUC ([4]; area under the concentration-time curve) was 5,202.
